Laboratory results published in PubChem BioAssay AID1996.
Values after ≈ are worked out from the molar mass of the structure shown.

conditions: buffer; pH 7.4; 200.0 µM

| SMILES | solubility kinetic [µg/mL] |
| --- | --- |
| CCC(C(=O)OCC(=O)NCc1ccc2c(c1)OCO2)c1ccccc1 (stereo unspecified) | 46 (≈ 129 µM) |
| Cc1ccc(C)c(C(C)NC(=S)NCc2ccc(F)cc2)c1 (stereo unspecified) | 1.4 (≈ 4.42 µM) |
| O=C(NC12CC3CC(CC(C3)C1)C2)c1c(Cl)cccc1Cl | < 0.7 |
| Cc1cc(C)c(NC(=O)COC(=O)C2CCC(=O)N2)c(C)c1 (stereo unspecified) | > 45.7 |
| CCOCCn1c(N2CCCC2)nc2c1c(=O)[nH]c(=O)n2C | 45.2 (≈ 147 µM) |
| Cc1cc(C(=O)OC(C)C(=O)NC2CCCCC2)c(C)o1 (stereo unspecified) | 15.7 (≈ 53.5 µM) |
| COC(=O)c1sc(NC(=O)c2c(C)noc2C)nc1C | > 44.3 |
| COc1cc(OC)c(C(=O)O/N=C(\N)c2ccc(C)cc2)cc1OC | > 51.7 |
| O=C(Nc1cccc(Cl)c1)c1cnccn1 | 26.5 (≈ 113 µM) |
| COc1ccc(CCNC(=O)CSCC(=O)Nc2cc(S(C)(=O)=O)ccc2Cl)cc1 | 18.6 (≈ 39.5 µM) |
| CCC1SC(=Nc2cccc(C)c2)NC1=O (stereo unspecified) | > 35.1 |
| O=C(CCCc1ccccc1)Nc1ccccc1[N+](=O)[O-] | 15.2 (≈ 53.5 µM) |
| COc1ccc(CCN2CC(C(=O)NCC(c3ccccc3)N(C)C)CC2=O)cc1OC (stereo unspecified) | > 65.9 |
| CCOC(=O)c1cc([N+](=O)[O-])sc1N | 4.6 (≈ 21.3 µM) |
| O=C(Cn1cnc2ccccc21)c1ccc(Cl)cc1 | 28.9 (≈ 107 µM) |
| CCOC(=O)N1CCC(NS(=O)(=O)c2ccccc2)CC1 | > 46.9 |
| C=CCn1c(O)c(C(C)=Nc2cccc(C(=O)O)c2)c(=O)[nH]c1=O | > 49.4 |
| CCOC(=O)c1sc(=S)n(CC)c1NC(=O)c1ccccc1C | 3.4 (≈ 9.7 µM) |
| O=C(NCCCn1ccnc1)c1cc2c(s1)CCCC2 | > 43.4 |
| O=C1NC(=O)N(CCC2=CCCCC2)C(=O)/C1=C/c1cccs1 | 26.1 (≈ 79 µM) |
| CC(C)C(NC(=O)c1ccc(F)cc1)C(=O)N1CCN(c2ccccn2)CC1 (stereo unspecified) | 25.8 (≈ 67.1 µM) |
| COc1cccc(NC(=O)COc2cccnc2[N+](=O)[O-])c1 | 5.8 (≈ 19.1 µM) |
| CC1CCC(NC(=O)COC(=O)c2ccco2)CC1 (stereo unspecified) | > 39.8 |
| CCCCC1CN2CCc3c([nH]c4ccccc34)C2(C)C1.Cl (stereo unspecified) | 27.7 |
| O=C(O)c1ccc(NCCC2=CCCCC2)c([N+](=O)[O-])c1 | 41.9 (≈ 144 µM) |

| SMILES | solubility kinetic [µg/mL] |
| --- | --- |
| Cc1noc(C(=O)Nc2cccnc2Cl)c1Cl | > 40.8 |
| O=C(Cn1c(=S)[nH]c2ccccc2c1=O)N1CCc2ccccc2C1 | 3.9 (≈ 11.1 µM) |
| COc1cc(OC)cc(C(=O)NCCc2cnc[nH]2)c1 | > 41.3 |
| CC1(C)Cc2cccc(C(=O)Nc3ccc(F)cc3F)c2O1 | 0.7 (≈ 2.31 µM) |
| Clc1ccc2nc(-c3ccccc3)cn2c1 | 1.4 (≈ 6.12 µM) |
| O=C(Nc1ccc(F)cc1)Nc1cnccn1 | 27.9 (≈ 120 µM) |
| NC(=Nc1ccccc1)c1ccccc1 | > 29.4 |
| CC(C)(C)c1ccc(C2(C)NC(=O)NC2=O)cc1 (stereo unspecified) | 35.2 (≈ 143 µM) |
| COc1ccc(CNC(=O)Cc2cccs2)cc1 | 26.9 (≈ 103 µM) |
| Cc1ccccc1OCC(=O)Nc1cnn(CCCC(=O)O)c1 | > 47.6 |
| Cc1ccc(NS(=O)(=O)c2ccc3c(c2)n(C)c(=O)n3C)cc1 | 6.3 (≈ 19 µM) |
| O=C1CNC(=O)/C(=C\c2ccccc2)N1 | > 30.3 |
| CC(C)NC(=O)c1sc2c(c1C(=O)Nc1cccnc1)CCCC2 | 6.4 (≈ 18.6 µM) |
| CSc1ccc(NC(=O)NCc2ccccc2)cc1 | 1.4 (≈ 5.14 µM) |
| COCCn1c(C)cc(O)c(C(=O)Nc2cccc(Cl)c2)c1=O | < 0.4 |
| CCOc1ccccc1NC(=O)c1ccc([N+](=O)[O-])cc1 | 2.7 (≈ 9.43 µM) |
| Cc1ccc(OCC(=O)NCc2ccco2)c([N+](=O)[O-])n1 | 37.3 (≈ 128 µM) |
| CCCNC(=O)CN1C(=O)NC(CCc2ccccc2)C1=O (stereo unspecified) | > 45.5 |
| CCOC(=O)Cn1c(=O)c(C#N)cn(C(C)C)c1=O | > 39.8 |
| Cc1csc(NC(=O)Cc2ccc(Cl)cc2)n1 | 22.2 (≈ 83.2 µM) |
| O=C(Nc1ccc(S(=O)(=O)N2CCc3ccccc32)cc1)C(F)(F)F | > 55.6 |
| O=C1CS/C(=N/N=C/c2ccncc2)N1 | > 33 |
| Cc1ccc(NS(=O)(=O)c2c(C)noc2C)cc1 | > 39.9 |
| Cc1ccc(NC(=O)COC(=O)c2cccnc2)c(C)c1 | > 42.6 |
| COc1ccc(C(=O)N2CCC(c3ccccc3)CC2)c(OC)c1OC | 47.6 (≈ 134 µM) |

| SMILES | solubility kinetic [µg/mL] |
| --- | --- |
| Cc1nc2cc3c(cc2s1)OCO3 | 13.1 (≈ 67.8 µM) |
| O=S(=O)(c1ccc(Cl)cc1Cl)N1CCCC1c1cccnc1 (stereo unspecified) | > 53.6 |
| Cc1ccc2nc(SC(C)C(=O)N3CCOCC3)[nH]c2c1 (stereo unspecified) | 38.3 (≈ 125 µM) |
| C=CCN1C(=O)c2ccccc2NC1c1cc(Br)cs1 (stereo unspecified) | 41.1 (≈ 118 µM) |
| O=C(O)c1ccc(NCc2ccc(Br)cc2)cc1 | > 45.9 |
| CC1(C)NC(=O)N(CC(=O)OCC(=O)c2ccc(Br)s2)C1=O | > 58.4 |
| Cc1cccc(NC(=O)NC2CCCCCCC2)c1C | 0.6 (≈ 2.19 µM) |
| Cc1cc(C(=O)NCc2ccc3c(c2)OCO3)ccc1[N+](=O)[O-] | 38.7 (≈ 123 µM) |
| CCS(=O)(=O)CCn1c([N+](=O)[O-])cnc1C | > 37.1 |
| COc1ccc(NC(=O)C(CC(=O)O)C(C)c2ccccc2)cc1 (stereo unspecified) | > 49.1 |
| Clc1ncc(CN2CCN(c3ccccc3)CC2)s1 | 40.9 (≈ 139 µM) |
| C=CCNC(=O)c1cc2cccc(OC)c2oc1=O | > 38.9 |
| Cc1ccc(CCNC(=O)C2CCCN(S(C)(=O)=O)C2)cc1 (stereo unspecified) | > 48.7 |
| Cc1nc2c(C)cccc2c2c1CCS2 | 0.5 (≈ 2.32 µM) |
| Cc1ccccc1CN1C(=O)c2ccccc2S1(=O)=O | 2.5 (≈ 8.7 µM) |
| O=C(Nc1ccc2ccccc2c1)c1cccc([N+](=O)[O-])c1 | < 0.3 |
| O=C(O)c1ccccc1C(=O)N(c1ccccc1)c1ccccc1 | 46.8 (≈ 147 µM) |
| CC(c1ccccc1)c1nnc(N)s1 (stereo unspecified) | > 30.8 |
| COc1ccc(OCC(=O)Nc2nccs2)cc1 | 39.1 (≈ 148 µM) |
| O=C(NCc1cccnc1)c1cnc2ccccc2n1 | > 39.6 |
| CC(=O)OC1CCC2(/C=N/O)C(=CCC3C4CCC(=O)C4(C)CCC32)C1 (stereo unspecified) | > 53.9 |
| CCOC(=O)C1CCN(Cc2cc(Cl)c3ccccc3c2O)CC1 | 6.2 (≈ 17.8 µM) |
| CCn1c(SCc2ccccc2)nc2cc(OC)c(OC)cc2c1=O | < 0.4 |
| COc1ccc(-c2[nH]ncc2CNC(C)Cc2cccc(C)n2)cc1F (stereo unspecified) | > 53.2 |
| Cc1cnc([N+](=O)[O-])n1CCOC(=O)c1cccc(F)c1 | > 44 |

| SMILES | solubility kinetic [µg/mL] |
| --- | --- |
| Cc1ccc(NC(=O)C2Oc3ccccc3OC2C)cc1 (stereo unspecified) | 28 (≈ 98.8 µM) |
| CCC(=O)N1CCN(c2ccnc3cc(Cl)ccc23)CC1 | 40.4 (≈ 133 µM) |
| O=C(CC(=O)Nc1cccc(F)c1)Nc1cccc(F)c1 | 9.4 (≈ 32.4 µM) |
| CC(=O)Oc1ccc(-c2csc(Nc3cccc(C)n3)n2)cc1 | < 0.2 |
| COc1ccc(CN2CC[C@@H](N3CCOCC3)[C@H](O)C2)cc1F | 43.3 (≈ 133 µM) |
| Cc1ccc(CNC(=O)c2cc3ccccc3oc2=O)cc1 | 1.2 (≈ 4.09 µM) |
| COc1ccc(-c2nc(CN3CCN(c4ncccn4)CC3)c(C)o2)cc1C | 39 (≈ 103 µM) |
| COc1cccc(NC(=O)c2ccc3c(c2)CCN3S(C)(=O)=O)c1 | > 52 |
| COc1ccc(CNC(=O)CSc2nc3ccccc3n2C(C)=O)cc1 | 21.2 (≈ 57.4 µM) |
| Cc1nc(=O)c(-c2ccccc2)c(C)n1-c1ccc(Br)cc1 | > 53.3 |
| CCc1ccc(NC(=O)CCc2nc3ccccc3[nH]2)cc1 | 0.7 (≈ 2.39 µM) |
| NC(=O)/C(=C/c1cccnc1)NC(=O)c1ccccc1 | > 40.1 |
| CC(C)(C)C(=O)Nc1ccc(S(=O)(=O)NC2=NCCCCC2)cc1 | > 52.7 |
| CCc1ccccc1NC(=O)c1ccccc1N1C(=O)C2C3C=CC(C3)C2C1=O (stereo unspecified) | 43.4 (≈ 112 µM) |
| CCOC(=O)N1CCN(CC(=O)Nc2ccc(F)c(F)c2)CC1 | > 49.1 |
| Cc1cc(C(=O)Nc2ccccc2C)on1 | > 32.4 |
| Cc1cc(=O)oc2c(CN3CCN(CCO)CC3)c(O)ccc12 | > 47.8 |
| Cc1cc(N2CCCCC2)nc2c(C)cccc12 | < 0.3 |
| CN(C)c1cccc(C(=O)OCC(=O)NC(=O)NCc2ccccc2)c1 | 2.6 (≈ 7.32 µM) |
| Cc1ccc(N=C2NC(=O)/C(=C/c3cccn3C)S2)cc1 | 2 (≈ 6.73 µM) |
| Cc1cccc(C)c1N1C(=O)CC(N2CCSCC2)C1=O (stereo unspecified) | > 45.7 |
| COc1ccccc1OCCCCN1CCCCC1 | 36.1 (≈ 137 µM) |
| Nc1nc2ccc(Cc3ccncc3)cc2s1 | > 36.2 |
| Cc1ccc(S(=O)(=O)c2c(C)cc(C)[nH]c2=O)c(C)c1 | > 43.7 |
| COc1ccc(OC)c(/C=C/C(=O)OCC(=O)NCc2ccccc2)c1 | 15.1 (≈ 42.5 µM) |

| SMILES | solubility kinetic [µg/mL] |
| --- | --- |
| CC(C)c1nc(C#N)c(NN)o1 | > 24.9 |
| CN1CCC(OC(=O)COc2ccc(F)cc2)CC1.Cl | > 45.6 |
| O=C(c1cc2c(s1)-c1ccccc1S(=O)(=O)C2)N1CCCC1 | 47.6 (≈ 143 µM) |
| COc1ccc(-c2nc(S(=O)(=O)c3ccccc3)c(NCCCN3CCOCC3)o2)cc1 | 67.8 (≈ 148 µM) |
| Cc1onc(-c2ccccc2Cl)c1C(=O)N1CCC(C(N)=O)CC1 | 50.7 (≈ 146 µM) |
| CC(C)[C@H](NC(=O)c1ccccc1Cl)C(=O)OCC(=O)NCc1ccc2c(c1)OCO2 | > 67 |
| C#CCn1c2ccccc2c2nc3ccccc3nc21 | < 0.2 |
| O=C1Cc2ccccc2C(c2ccc(Cl)cc2Cl)N1 (stereo unspecified) | 3.1 (≈ 10.6 µM) |
| Cc1ccc(S(=O)(=O)NCC(=O)NC2CC2)cc1 | > 40.2 |
| C=CCNC(=O)CN1CCC(c2nc3cc(C)c(C)cc3[nH]2)CC1 | > 49 |
| COc1ccc(Cl)cc1C(=O)NCCCn1ccnc1 | > 44.1 |
| Cc1cc(OC(=O)N(C)C)nc(-c2ccc(C)c(Cl)c2)n1 | 22.5 (≈ 73.6 µM) |
| Cc1ccsc1-c1nc(CN2C[C@@H](C)O[C@@H](C)C2)c(C)o1 | > 46 |
| COc1ccc(NC(=O)C2CCCN(c3cnccn3)C2)cc1 (stereo unspecified) | > 46.9 |
| Cc1cc(C)n2nc(SCC(=O)Nc3ccccc3F)nc2n1 | > 49.7 |
| COc1ccc(OCC(=O)N(C)CC2COc3ccccc3O2)cc1 (stereo unspecified) | > 51.5 |
| O=C(COC(=O)Cc1ccc(F)cc1)NC1CCCCC1 | > 44 |
| Cc1ccccc1NS(=O)(=O)c1cccc2nonc12 | > 43.4 |
| COc1ccc(OC)c(NC(=O)CSc2nc(O)cc(=O)n2CC(C)C)c1 | > 59 |
| NC(=O)CC(CC(=O)OCc1ccccc1)c1ccccc1 (stereo unspecified) | 38 (≈ 128 µM) |
| CCN(CC)C(=O)Cc1c(OC)ccc2cc(Br)ccc12 | 17.7 (≈ 50.5 µM) |
